Reference: patent US20260191827A1, “COMPOUNDS FOR USE IN THE TREATMENT OF DISEASES AND CONDITIONS ASSOCIATED WITH NEURODEGENERATIVE DYSFUNCTION” (OnTrack Therapeutics Limited, priority 2022, published 2026)
Structures can show the parent of a compound that is named as a salt.

Assays:
[1] = system: scopolamine-induced impairment in cognition; settings: normal healthy humans, donepezil 10 mg; cited from earlier work
[2] = system: scopolamine-induced cognitive deficit in mice; test: Scopolamine-induced cognitive deficit, T-maze spontaneous alternation
Description: 60 male CD-1 mice (Janvier; Le Genest St Isle—France) were used for the study, with 10 animals per group.
Animals in the API groups were pre-treated (p.o.) once a day for 30 days, the last treatment was given 1 h before the T-maze test.
Compound of Formula I or its vehicle was administered at 5 ml/kg using p.o. route. The vehicle was 5% DMSO/0.5% methylcellulose in water. Fresh compound solution was prepared daily as following: the required amount of compound will be dissolved in 100% DMSO and then the required amount of 0.5% methylcellulose in water was added.
On the day of the T-maze, the last treatment was given 1 h before the task.
Donepezil (donepezil hydrochloride) was prepared in saline at a concentration of 0.03 mg/ml and was given p.o. at a dosage volume of 10 ml/kg 1 h before the T-maze trial start.
Scopolamine was prepared in saline (vehicle) at a concentration of 0.089 mg/ml (free base) and was given i.p. at a dosage volume of 10 ml/kg 30 min before the T-maze trial start.
The T-maze consists of 2 choice arms and 1 start arm mounted to a square centre. Sliding doors are provided to close specific arms during the force choice alternation task.
The experimental protocol consists of one single session, which starts with 1 “forced-choice” trial, followed by 14 “free-choice” trials. In the first “forced-choice” trial, the animal was confined for 5 s in the start arm and then was released while either the left or right goal arm was blocked by closing the sliding door. The animal then negotiated the maze, and eventually entered the open goal arm, and returned to the start position.
Immediately after the return of the animal to the start position, the left or right goal door was opened, and the animal was allowed to choose freely between the left and right goal arm (“free choice trials).
The animal was considered to have entered an arm when it placed its four paws in the arm.
A session was terminated, and the animal was removed from the maze as soon as 14 free-choice trials had been performed or 10 min have elapsed, whatever event occurred first.
The percentage of spontaneous alternations were calculated as number of spontaneous alternations divided by 14 possible free choice.
Statistical analysis was assessed using Anova followed by Fischer's Protected Least Significant Difference for pairwise comparison. p level <0.05 was deemed significant.

[3] = system: sub-chronic PCP-induced deficits in recognition memory in rats; test: Sub-chronic PCP-induced deficit in novel object recognition (NOR) paradigm; settings: for Acquisition total exploration time / Retention total exploration time: mean ± s.e.m.
[4] = system: 5XFAD mice; settings: repeated administration, WO2020/033604; cited from earlier work
[5] = system: animal model of Alzheimer's disease; settings: low dose; Chen et al., 2021; cited from earlier work
[6] = biological target: tropomyosin receptor kinase B (TrkB) (Homo sapiens, UniProt Q16620); settings: known from background; cited from earlier work
tropomyosin receptor kinase B (TrkB), sequence (Q16620 32-822, species assumed): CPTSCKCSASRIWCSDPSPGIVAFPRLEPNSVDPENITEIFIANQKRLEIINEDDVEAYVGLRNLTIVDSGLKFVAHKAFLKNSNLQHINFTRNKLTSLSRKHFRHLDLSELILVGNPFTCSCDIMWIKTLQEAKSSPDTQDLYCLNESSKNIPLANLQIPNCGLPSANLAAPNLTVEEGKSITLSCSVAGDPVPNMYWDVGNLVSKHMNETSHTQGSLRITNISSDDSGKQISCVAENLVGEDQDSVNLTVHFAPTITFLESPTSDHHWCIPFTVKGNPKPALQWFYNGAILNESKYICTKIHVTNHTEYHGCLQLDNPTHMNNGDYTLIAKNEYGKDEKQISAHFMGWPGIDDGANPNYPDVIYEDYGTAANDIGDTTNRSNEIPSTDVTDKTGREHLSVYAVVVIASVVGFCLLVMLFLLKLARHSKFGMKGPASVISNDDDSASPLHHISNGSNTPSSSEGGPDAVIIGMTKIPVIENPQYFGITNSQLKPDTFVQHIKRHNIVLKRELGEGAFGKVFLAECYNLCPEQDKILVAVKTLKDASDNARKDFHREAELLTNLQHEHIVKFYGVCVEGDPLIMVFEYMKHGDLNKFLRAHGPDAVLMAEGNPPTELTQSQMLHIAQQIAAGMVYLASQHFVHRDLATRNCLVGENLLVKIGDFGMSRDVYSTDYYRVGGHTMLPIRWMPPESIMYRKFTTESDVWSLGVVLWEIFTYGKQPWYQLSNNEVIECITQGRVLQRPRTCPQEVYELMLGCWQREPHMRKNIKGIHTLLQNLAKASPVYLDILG

[7] = 20-day phase (day 20), scPCP rats, acute risperidone 0.1 mg/kg i.p. 60 min before test
[8] = acute phase (day 1), scPCP rats, risperidone 0.1 mg/kg i.p. 60 min before test
[9] = 20-day once-daily treatment, scPCP rats, 10 mg/kg p.o.
[10] = 20-day once-daily treatment, scPCP rats, 30 mg/kg p.o.
[11] = acute treatment, scPCP rats, 10 mg/kg p.o. 120 min before test
[12] = acute treatment, scPCP rats, 30 mg/kg p.o. 120 min before test

Which results are given for `COc1cc2c(cc1OC)C(=O)C(CC1CCN(Cc3ccccc3)CC1)C2` (stereo not drawn) [Donepezil, donepezil hydrochloride, reference compound]?
scopolamine-induced impairment in cognition (power of attention, continuity of attention, quality of working memory, speed of memory) [1]: significantly attenuated; Spontaneous alternation (%) ([2]; Scopolamine 0.89 mg/kg i.p., Donepezil 0.3 mg/kg p.o. 1 h before T-maze, hydrochloride): 65.0%; Spontaneous alternation (%) ([2]; Scopolamine 0.89 mg/kg i.p., Donepezil 0.3 mg/kg p.o. 1 h before T-maze, listed as donepezil, hydrochloride): 65%; effect on scopolamine-induced decline in cognitive function ([2]; donepezil 0.3 mg/kg, statistically significant): ameliorated

Which “Acquisition total exploration time” value [3, 7] does the source give for `Cc1nc2n(c(=O)c1CCN1CCC(c3noc4cc(F)ccc34)CC1)CCCC2` [Risperidone, risperidone, reference compound] here?
Its value is 25.5 ± 3.4 s.

And the “Retention total exploration time” value [3, 7]?
Its value is 17.8 ± 1.1 s.

What about the “Acquisition total exploration time” value [3, 8] of the same compound?
The value was 22.81 ± 4.03 s.

What about the “Retention total exploration time” value [3, 8] of the same compound?
The value was 23.10 ± 2.92 s.

And the “discrimination index (DI)” value ([3]; acute phase, risperidone 0.1 mg/kg i.p., versus scPCP without treatment and test compound (FIG. 4))?
The value was “higher”.

What about the “rescue of deficits induced by scPCP in NOR” value ([3]; risperidone dosed acutely) of the same compound?
Its value is “able to rescue the deficits induced by scPCP”.

With `N#Cc1ccc(-c2cc(=O)c3ccc4[nH]c(C(F)(F)F)nc4c3o2)cc1` [compound of Formula I, 4-(6-oxo-2-(trifluoromethyl)-3,6-dihydrochromeno [7,8-d]imidazol-8-yl)benzonitrile] as the compound, how does the synaptic loss [4] read?
Its synaptic loss is “able to prevent synaptic loss”.

What about the “dose effect in Alzheimer's disease animal model” value [5] of the same compound?
The value was “saturation effect”.

What about the “spontaneous alternations in comparison to vehicle in scopolamine-treated mice” value ([2]; 30 days treatment prior to scopolamine, statistically significant) of the same compound?
Its value is “increased percentage of spontaneous alternations”.

And the “Spontaneous alternation (%)” value ([2]; Saline (healthy mice), Compound of Formula I high dose 10 mg/kg p.o. once a day for 30 days, 10 mg/kg)?
Its value is 64%.

What about the “Spontaneous alternation (%)” value ([2]; Saline (healthy mice), Compound of Formula I high dose 10 mg/kg p.o. once a day for 30 days, listed as Compound of Formula I, 10 mg/kg) of the same compound?
Its value is 64.3%.

And the “Spontaneous alternation (%)” value ([2]; Scopolamine, Compound of Formula I high dose 10 mg/kg p.o. once a day for 30 days, 10 mg/kg)?
The value was 56%.

And the “Spontaneous alternation (%)” value ([2]; Scopolamine, Compound of Formula I high dose 10 mg/kg p.o. once a day for 30 days, listed as Compound of Formula I, 10 mg/kg)?
Its value is 55.7%.

What about the “Spontaneous alternation (%)” value ([2]; Scopolamine, Compound of Formula I low dose 5 mg/kg p.o. once a day for 30 days, 5 mg/kg) of the same compound?
Its value is 56%.

What about the “Spontaneous alternation (%)” value ([2]; Scopolamine, Compound of Formula I low dose 5 mg/kg p.o. once a day for 30 days, listed as Compound of Formula I, 5 mg/kg) of the same compound?
Its value is 55.7%.

And the “effect on cognition in healthy animals” value ([2]; healthy mice, 10 mg/kg, 30 days)?
Its value is “did not impair cognition in healthy animals”.

What about the “Acquisition total exploration time” value [3, 9] of the same compound?
The value was 24.6 ± 3.4 s.

And the “Retention total exploration time” value [3, 9]?
The value was 19.0 ± 1.4 s.

What about the “Acquisition total exploration time” value [3, 10] of the same compound?
Its value is 26.1 ± 3.1 s.

What about the “Retention total exploration time” value [3, 10] of the same compound?
Its value is 20.8 ± 1.2 s.

And the “discrimination index (DI)” value ([3]; 20-day treatment, 30 mg/kg, compared to animals without treatment, P<0.015 (FIG. 8))?
The value was “statistically significant increase”.

And the “amount of time spent exploring the familiar and novel object in the retention trial” value ([3]; 20-day treatment, scPCP rats, 10 & 30 mg/kg p.o., P<0.01 (FIG. 7))?
The value was “dose dependent statistically significant effect”.

What about the “Acquisition total exploration time” value [3, 11] of the same compound?
The value was 21.75 ± 2.46 s.

And the “Retention total exploration time” value [3, 11]?
Its value is 22.55 ± 1.60 s.

What about the “Acquisition total exploration time” value [3, 12] of the same compound?
The value was 25.49 ± 3.04 s.

What about the “Retention total exploration time” value [3, 12] of the same compound?
Its value is 26.18 ± 2.11 s.

What about the “amount of time exploring the novel or familiar object in the retention trial” value ([3]; acute treatment, scPCP rats, 10 & 30 mg/kg p.o. (FIG. 3)) of the same compound?
The value was “not shown to have a difference”.

And the “rescue of deficits induced by scPCP in NOR” value ([3]; dosing for a 20-day period)?
The value was “able to rescue the scPCP in a dose dependent manner”.

With `O=c1cc(-c2ccccc2)oc2c(O)c(O)ccc12` [tropoflavin, 7,8-dihydroxyflavone] as the compound, how does the TrkB activity [6] read?
The TrkB activity was “potent and selective agonist”.
